# Measurements from ChEMBL document CHEMBL5244230, “Artemisinin-derived hybrids and their anticancer activity” (Eur J Med Chem, 2020).
# Assays:
# Format in all cases: functional, cell-based
# HT-29 = assay: Antiproliferative activity against human HT-29 cells assessed as reduction in cell viability measured for 72 hrs by MTT assay; settings: HT-29, 72 h
# MDA-MB-231 = assay: Antiproliferative activity against human MDA-MB-231 cells assessed as reduction in cell viability measured for 72 hrs by MTT assay; settings: MDA-MB-231, 72 h
# HeLa = assay: Antiproliferative activity against human HeLa cells assessed as reduction in cell viability measured for 72 hrs by MTT assay
# NCI-H460 = assay: Antiproliferative activity against human NCI-H460 cells assessed as reduction in cell viability measured for 72 hrs by MTT assay; settings: NCI-H460, 72 h
# A549 = assay: Antiproliferative activity against human A549 cells assessed as reduction in cell viability measured for 72 hrs by MTT assay; settings: A549, 72 h
Structure (SMILES),IC50 (HT-29) [nM],IC50 (MDA-MB-231) [nM],IC50 (HeLa) [nM],IC50 (NCI-H460) [nM],IC50 (A549) [nM]
COc1cccc(/C=C/C(=O)c2ccc(COCC(=O)N[C@H]3O[C@@H]4O[C@@]5(C)CC[C@H]6[C@H](C)CC[C@@H]([C@H]3C)[C@@]46OO5)cc2)c1,90,90,90,90,90
C[C@H]1[C@H](NC(=O)COCc2ccc(C(=O)/C=C/c3ccc(Cl)cc3F)cc2)O[C@@H]2O[C@@]3(C)CC[C@H]4[C@H](C)CC[C@@H]1[C@@]24OO3,100,100,100,100,100
C[C@H]1[C@H](NC(=O)COCc2ccc(C(=O)/C=C/c3cccc(Cl)c3Cl)cc2)O[C@@H]2O[C@@]3(C)CC[C@H]4[C@H](C)CC[C@@H]1[C@@]24OO3,100,100,100,100,100
C[C@H]1[C@@H](NC(=O)COCc2ccc(C(=O)/C=C/c3c(Cl)cccc3Cl)cc2)O[C@@H]2O[C@@]3(C)CC[C@H]4[C@H](C)CC[C@@H]1[C@@]24OO3,90,90,90,90,90
COc1ccc(OC)c(/C=C/C(=O)c2ccc(COCC(=O)N[C@@H]3O[C@@H]4O[C@@]5(C)CC[C@H]6[C@H](C)CC[C@@H]([C@H]3C)[C@@]46OO5)cc2)c1,100,100,100,100,100
C[C@H]1[C@@H](NC(=O)COCc2ccc(/C=C/C(=O)c3ccc(Cl)cc3)cc2)O[C@@H]2O[C@@]3(C)CC[C@H]4[C@H](C)CC[C@@H]1[C@@]24OO3,1700,1700,1700,1700,1700
C[C@H]1[C@H](NC(=O)COCc2ccc(C(=O)/C=C/c3ccccc3F)cc2)O[C@@H]2O[C@@]3(C)CC[C@H]4[C@H](C)CC[C@@H]1[C@@]24OO3,100,100,100,100,100
COc1cccc(/C=C/C(=O)c2ccc(COCC(=O)N[C@@H]3O[C@@H]4O[C@@]5(C)CC[C@H]6[C@H](C)CC[C@@H]([C@H]3C)[C@@]46OO5)cc2)c1,100,100,100,100,100
C[C@H]1[C@H](NC(=O)COCc2ccc(C(=O)/C=C/c3ccc(OC(F)(F)F)cc3)cc2)O[C@@H]2O[C@@]3(C)CC[C@H]4[C@H](C)CC[C@@H]1[C@@]24OO3,100,100,100,100,100
C[C@H]1[C@@H](NC(=O)COCc2ccc(C(=O)/C=C/c3ccc(Cl)cc3F)cc2)O[C@@H]2O[C@@]3(C)CC[C@H]4[C@H](C)CC[C@@H]1[C@@]24OO3,90,90,90,90,90
C[C@H]1[C@@H](NC(=O)COCc2ccc(C(=O)/C=C/c3ccc(F)c(F)c3)cc2)O[C@@H]2O[C@@]3(C)CC[C@H]4[C@H](C)CC[C@@H]1[C@@]24OO3,90,90,90,90,90
C[C@H]1[C@@H](NC(=O)COCc2ccc(C(=O)/C=C/c3cccc(Cl)c3Cl)cc2)O[C@@H]2O[C@@]3(C)CC[C@H]4[C@H](C)CC[C@@H]1[C@@]24OO3,90,90,90,90,90
C[C@H]1[C@H](NC(=O)COCc2ccc(C(=O)/C=C/c3c(Cl)cccc3Cl)cc2)O[C@@H]2O[C@@]3(C)CC[C@H]4[C@H](C)CC[C@@H]1[C@@]24OO3,100,100,100,100,100
C[C@H]1[C@H](NC(=O)COCc2ccc(C(=O)/C=C/c3ccc(F)c(F)c3)cc2)O[C@@H]2O[C@@]3(C)CC[C@H]4[C@H](C)CC[C@@H]1[C@@]24OO3,100,100,100,100,100
C[C@H]1[C@@H](NC(=O)COCc2ccc(/C=C/C(=O)c3ccc(Cl)c(Cl)c3)cc2)O[C@@H]2O[C@@]3(C)CC[C@H]4[C@H](C)CC[C@@H]1[C@@]24OO3,1700,1700,1700,1700,1700
C[C@H]1[C@H](NC(=O)COCc2ccc(C(=O)/C=C/c3ccc(Cl)cc3)cc2)O[C@@H]2O[C@@]3(C)CC[C@H]4[C@H](C)CC[C@@H]1[C@@]24OO3,100,100,100,100,100

Structure (SMILES),IC50 (HT-29) [nM],IC50 (MDA-MB-231) [nM],IC50 (HeLa) [nM],IC50 (NCI-H460) [nM],IC50 (A549) [nM]
COc1ccc(/C=C/C(=O)c2ccc(COCC(=O)N[C@@H]3O[C@@H]4O[C@@]5(C)CC[C@H]6[C@H](C)CC[C@@H]([C@H]3C)[C@@]46OO5)cc2)c(OC)c1OC,100,100,100,100,100
C[C@H]1[C@@H](NC(=O)COCc2ccc(C(=O)/C=C/c3ccc(F)cc3)cc2)O[C@@H]2O[C@@]3(C)CC[C@H]4[C@H](C)CC[C@@H]1[C@@]24OO3,90,90,90,90,90
C[C@H]1[C@H](NC(=O)COCc2ccc(C(=O)/C=C/c3ccc(F)cc3F)cc2)O[C@@H]2O[C@@]3(C)CC[C@H]4[C@H](C)CC[C@@H]1[C@@]24OO3,100,100,100,100,100
C[C@H]1[C@@H](NC(=O)COCc2ccc(C(=O)/C=C/c3ccc(F)cc3F)cc2)O[C@@H]2O[C@@]3(C)CC[C@H]4[C@H](C)CC[C@@H]1[C@@]24OO3,90,90,90,90,90
C[C@H]1[C@@H](NC(=O)COCc2ccc(C(=O)/C=C/c3cccc(OC(F)(F)F)c3)cc2)O[C@@H]2O[C@@]3(C)CC[C@H]4[C@H](C)CC[C@@H]1[C@@]24OO3,90,90,90,90,90
COc1ccc(OC)c(/C=C/C(=O)c2ccc(COCC(=O)N[C@H]3O[C@@H]4O[C@@]5(C)CC[C@H]6[C@H](C)CC[C@@H]([C@H]3C)[C@@]46OO5)cc2)c1,90,90,90,90,90
C[C@H]1[C@H](NC(=O)COCc2ccc(C(=O)/C=C/c3cccc(OC(F)(F)F)c3)cc2)O[C@@H]2O[C@@]3(C)CC[C@H]4[C@H](C)CC[C@@H]1[C@@]24OO3,100,100,100,100,100
C[C@H]1[C@@H](NC(=O)COCc2ccc(C(=O)/C=C/c3ccccc3F)cc2)O[C@@H]2O[C@@]3(C)CC[C@H]4[C@H](C)CC[C@@H]1[C@@]24OO3,90,90,90,90,90
COc1ccc(/C=C/C(=O)c2ccc(COCC(=O)N[C@H]3O[C@@H]4O[C@@]5(C)CC[C@H]6[C@H](C)CC[C@@H]([C@H]3C)[C@@]46OO5)cc2)c(OC)c1OC,90,90,90,90,90
C[C@H]1[C@@H](NC(=O)COCc2ccc(C(=O)/C=C/c3ccc(Cl)cc3)cc2)O[C@@H]2O[C@@]3(C)CC[C@H]4[C@H](C)CC[C@@H]1[C@@]24OO3,90,90,90,90,90
C[C@H]1[C@H](NC(=O)COCc2ccc(C(=O)/C=C/c3ccc(S(C)(=O)=O)cc3)cc2)O[C@@H]2O[C@@]3(C)CC[C@H]4[C@H](C)CC[C@@H]1[C@@]24OO3,100,100,100,100,100
C[C@H]1[C@H](NC(=O)COCc2ccc(C(=O)/C=C/c3ccc(F)cc3)cc2)O[C@@H]2O[C@@]3(C)CC[C@H]4[C@H](C)CC[C@@H]1[C@@]24OO3,100,100,100,100,100
C[C@H]1[C@@H](NC(=O)COCc2ccc(/C=C/C(=O)c3ccc(C(F)(F)F)cc3)cc2)O[C@@H]2O[C@@]3(C)CC[C@H]4[C@H](C)CC[C@@H]1[C@@]24OO3,1700,1700,1700,1700,1700
C[C@H]1[C@@H](NC(=O)COCc2ccc(C(=O)/C=C/c3ccc(S(C)(=O)=O)cc3)cc2)O[C@@H]2O[C@@]3(C)CC[C@H]4[C@H](C)CC[C@@H]1[C@@]24OO3,90,90,90,90,90
COc1cccc(C(=O)/C=C/c2ccc(COCC(=O)N[C@H]3O[C@@H]4O[C@@]5(C)CC[C@H]6[C@H](C)CC[C@@H]([C@H]3C)[C@@]46OO5)cc2)c1,1700,1700,1700,1700,1700
C[C@H]1[C@@H](NC(=O)COCc2ccc(C(=O)/C=C/c3ccc(OC(F)(F)F)cc3)cc2)O[C@@H]2O[C@@]3(C)CC[C@H]4[C@H](C)CC[C@@H]1[C@@]24OO3,90,90,90,90,90
